Laboratory results taken from publication PMC5740388, “In Vitro Antibacterial Properties of Cefiderocol, a Novel Siderophore Cephalosporin, against Gram-Negative Bacteria” (Antimicrobial Agents and Chemotherapy, 2017).
Read-outs that look alike come from different tables or passages of the source.

Legend:
Experiment in all cases: competition with […]benzylpenicillin for PBPs
Assay type in all cases: binding
[1] = biological target: T1, PBP2 of E. coli NIHJ JC-2 (Escherichia coli, UniProt P0AD65); details: covalent
T1 construct: gene mrdA
T1 sequence (P0AD65 1-633): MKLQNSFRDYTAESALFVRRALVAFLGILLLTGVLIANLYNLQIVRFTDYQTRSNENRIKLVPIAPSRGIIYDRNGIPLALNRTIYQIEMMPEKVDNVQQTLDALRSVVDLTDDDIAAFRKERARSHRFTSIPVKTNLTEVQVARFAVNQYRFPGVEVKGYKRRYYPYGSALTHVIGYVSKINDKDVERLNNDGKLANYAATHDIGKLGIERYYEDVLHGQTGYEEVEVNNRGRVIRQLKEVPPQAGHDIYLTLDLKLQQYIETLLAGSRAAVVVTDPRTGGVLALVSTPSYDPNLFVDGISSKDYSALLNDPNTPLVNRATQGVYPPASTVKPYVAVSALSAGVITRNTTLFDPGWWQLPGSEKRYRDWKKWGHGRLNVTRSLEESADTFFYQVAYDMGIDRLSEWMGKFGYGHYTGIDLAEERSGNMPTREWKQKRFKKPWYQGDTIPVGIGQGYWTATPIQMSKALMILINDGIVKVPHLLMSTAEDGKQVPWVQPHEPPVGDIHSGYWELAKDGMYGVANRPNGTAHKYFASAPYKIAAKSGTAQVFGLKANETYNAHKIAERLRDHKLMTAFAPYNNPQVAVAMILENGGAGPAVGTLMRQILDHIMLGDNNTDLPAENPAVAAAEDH

[2] = biological target: T2, PBP2 of P. aeruginosa ATCC 27853 (Pseudomonas aeruginosa, UniProt Q9X6V3); details: covalent; read-out: IC50 (μg/ml) / E. coli NIHJ JC-2 / Ceftazidime
T2 construct: gene pbpA
T2 sequence (Q9X6V3 1-646): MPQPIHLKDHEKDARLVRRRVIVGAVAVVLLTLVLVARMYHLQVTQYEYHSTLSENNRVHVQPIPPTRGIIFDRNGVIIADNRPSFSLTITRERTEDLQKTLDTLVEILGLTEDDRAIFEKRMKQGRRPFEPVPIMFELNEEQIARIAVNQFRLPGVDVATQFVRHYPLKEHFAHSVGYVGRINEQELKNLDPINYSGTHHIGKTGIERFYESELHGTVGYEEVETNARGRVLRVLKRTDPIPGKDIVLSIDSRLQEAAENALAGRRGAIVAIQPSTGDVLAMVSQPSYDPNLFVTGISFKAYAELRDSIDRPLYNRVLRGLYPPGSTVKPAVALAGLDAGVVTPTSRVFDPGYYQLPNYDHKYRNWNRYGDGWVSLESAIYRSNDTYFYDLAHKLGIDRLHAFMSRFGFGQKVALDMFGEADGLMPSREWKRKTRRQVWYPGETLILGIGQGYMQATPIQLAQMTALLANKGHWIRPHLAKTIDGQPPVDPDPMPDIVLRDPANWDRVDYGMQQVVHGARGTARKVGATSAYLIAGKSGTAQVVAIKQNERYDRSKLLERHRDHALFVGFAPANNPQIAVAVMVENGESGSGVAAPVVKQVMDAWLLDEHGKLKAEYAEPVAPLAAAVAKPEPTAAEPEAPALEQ

[3] = biological target: T3, PBP4 of K. pneumoniae SR22291 (Klebsiella pneumoniae, UniProt A6TEK1); details: covalent
T3 construct: gene dacB
T3 sequence (A6TEK1 21-477): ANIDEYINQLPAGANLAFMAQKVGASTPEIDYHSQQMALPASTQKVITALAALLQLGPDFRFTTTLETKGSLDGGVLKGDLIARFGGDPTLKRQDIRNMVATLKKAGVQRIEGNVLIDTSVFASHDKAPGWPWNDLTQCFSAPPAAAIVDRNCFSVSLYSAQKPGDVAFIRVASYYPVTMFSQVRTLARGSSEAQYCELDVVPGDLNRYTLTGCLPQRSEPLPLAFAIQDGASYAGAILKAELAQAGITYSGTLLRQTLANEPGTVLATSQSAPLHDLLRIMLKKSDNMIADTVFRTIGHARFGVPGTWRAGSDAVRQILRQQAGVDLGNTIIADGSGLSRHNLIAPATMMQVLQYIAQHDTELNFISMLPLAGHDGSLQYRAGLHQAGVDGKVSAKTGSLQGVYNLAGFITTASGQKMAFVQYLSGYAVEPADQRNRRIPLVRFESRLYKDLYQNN

[4] = biological target: T4, PBP1b of K. pneumoniae SR22291 (Klebsiella pneumoniae, UniProt A0ACD7TXF1); details: covalent
T4 construct: gene mrcB
T4 sequence (A0ACD7TXF1 1-850): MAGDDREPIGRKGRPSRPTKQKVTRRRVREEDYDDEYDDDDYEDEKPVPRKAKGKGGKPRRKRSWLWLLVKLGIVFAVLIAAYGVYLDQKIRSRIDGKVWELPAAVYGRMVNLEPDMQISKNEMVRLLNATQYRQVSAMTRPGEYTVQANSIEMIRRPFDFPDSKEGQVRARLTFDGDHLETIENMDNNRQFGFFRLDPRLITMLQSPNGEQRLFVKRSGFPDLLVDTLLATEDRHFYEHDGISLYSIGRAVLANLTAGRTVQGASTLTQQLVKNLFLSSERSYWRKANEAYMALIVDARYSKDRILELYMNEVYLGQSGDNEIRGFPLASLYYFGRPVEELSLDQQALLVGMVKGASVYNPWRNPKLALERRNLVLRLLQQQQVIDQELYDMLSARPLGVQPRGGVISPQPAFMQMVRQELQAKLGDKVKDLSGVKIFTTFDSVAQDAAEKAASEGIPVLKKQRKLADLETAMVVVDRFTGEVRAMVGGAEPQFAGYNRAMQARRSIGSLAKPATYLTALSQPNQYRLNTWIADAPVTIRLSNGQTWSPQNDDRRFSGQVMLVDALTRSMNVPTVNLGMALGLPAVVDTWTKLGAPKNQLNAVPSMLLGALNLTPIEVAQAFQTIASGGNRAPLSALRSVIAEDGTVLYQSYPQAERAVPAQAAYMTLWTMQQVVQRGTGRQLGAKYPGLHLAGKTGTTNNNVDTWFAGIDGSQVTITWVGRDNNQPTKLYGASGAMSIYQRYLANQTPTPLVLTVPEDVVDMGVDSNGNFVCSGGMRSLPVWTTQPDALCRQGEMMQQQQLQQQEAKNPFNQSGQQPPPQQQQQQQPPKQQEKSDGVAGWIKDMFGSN

[5] = biological target: T5, PBP3 of E. coli NIHJ JC-2 (Escherichia coli, UniProt P0AD68); details: covalent
T5 construct: gene ftsI

[6] = read-out: IC50 (μg/ml) / E. coli NIHJ JC-2 / Cefiderocol (converted)
[7] = read-out: IC50 (μg/ml) / K. pneumoniae SR22291 / Cefiderocol (converted)
[8] = read-out: IC50 (μg/ml) / K. pneumoniae SR22291 / Ceftazidime (converted)

T5 sequence (P0AD68 1-577): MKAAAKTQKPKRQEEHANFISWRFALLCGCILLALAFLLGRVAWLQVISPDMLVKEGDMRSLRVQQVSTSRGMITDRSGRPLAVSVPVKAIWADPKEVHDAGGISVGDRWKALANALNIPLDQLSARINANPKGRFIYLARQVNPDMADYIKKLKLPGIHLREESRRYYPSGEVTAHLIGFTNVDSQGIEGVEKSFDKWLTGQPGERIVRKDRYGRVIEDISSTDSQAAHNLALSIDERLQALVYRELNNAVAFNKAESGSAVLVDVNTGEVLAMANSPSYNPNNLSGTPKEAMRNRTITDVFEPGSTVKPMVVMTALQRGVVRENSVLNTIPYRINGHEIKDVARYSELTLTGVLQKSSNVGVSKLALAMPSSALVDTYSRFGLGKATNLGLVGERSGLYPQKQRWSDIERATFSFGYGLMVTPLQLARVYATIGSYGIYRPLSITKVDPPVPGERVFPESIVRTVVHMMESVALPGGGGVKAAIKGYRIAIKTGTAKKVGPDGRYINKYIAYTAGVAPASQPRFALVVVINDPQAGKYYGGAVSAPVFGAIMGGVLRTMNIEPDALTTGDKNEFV

Row | SMILES | IC50 [1, 6] | IC50 [2] | IC50 [3, 7] | IC50 [4, 7] | IC50 [5, 6] | IC50 ([1]; read-out: IC50 (μg/ml) / E. coli NIHJ JC-2 / Ceftazidime) | IC50 [3, 8] | IC50 [4, 8] | IC50 ([5]; read-out: IC50 (μg/ml) / E. coli NIHJ JC-2 / Ceftazidime (converted))
1 | CC(C)(O/N=C(\C(=O)N[C@@H]1C(=O)N2C(C(=O)[O-])=C(C[N+]3(CCNC(=O)c4ccc(O)c(O)c4Cl)CCCC3)CS[C@H]12)c1csc(N)n1)C(=O)O [cefiderocol] | 2.82 µM | > 5.32 µM | 0.372 µM | 4.65 µM | 0.0532 µM | – | – | – | –
2 | CC(C)(O/N=C(\C(=O)N[C@@H]1C(=O)N2C(C(=O)[O-])=C(C[n+]3ccccc3)CS[C@H]12)c1csc(N)n1)C(=O)O [ceftazidime] | – | > 7.32 µM | – | – | – | > 7.32 µM | 6.59 µM | 4.21 µM | 0.823 µM
